These results are taken from publication PMC7688903 (Frontiers in Microbiology, 2020).

For one series, the system named is E. coli ATCC 25922. It is filed as cell-based, Escherichia coli. To be noted: ATCC 25922, 20 h. An outline of the steps:
(§1)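 Inocula were set to 0.5 McFarland and diluted to ~5 × 10^5 CFU/mL (bacteria, MH broth) or 0.5 × 10^3 to 2.5 × 10^3 CFU/mL (yeast, RPMI 1640). Peptide twofold dilutions were added, plates incubated 20 h at 37°C or 48 h at 35°C, then scored by eye.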

A further series concerns P. aeruginosa ATCC 27853. It is filed as cell-based, Pseudomonas aeruginosa. To be noted: ATCC 27853, 20 h. An outline of the steps: as §1
In series [1] the test system is carbapenem-resistant P. aeruginosa (CRPA) SIPI-012. It is filed as cell-based, Pseudomonas aeruginosa. Particulars: carbapenem-resistant (CRPA) SIPI-012, 20 h. An outline of the steps:
as §1

In a further series the test system is A. baumannii ATCC 19606. It is filed as cell-based, Acinetobacter baumannii. Particulars: ATCC 19606, 20 h. In outline:
as §1

Series [2] concerns carbapenem-resistant A. baumannii (CRAB) SIPI-025. Type of series: cell-based, Acinetobacter baumannii. To be noted: carbapenem-resistant (CRAB) SIPI-025, 20 h. An outline of the steps:
as §1

For a further series, the system named is S. aureus ATCC 25923. Nature of the series: microbe, parasite or virus in culture. Type of series: cell-based, Staphylococcus aureus. Particulars: ATCC 25923, 20 h. An outline of the steps:
as §1

The subject of the next series is C. albicans ATCC 10231. The experiment in a line: microbe, parasite or virus in culture. Particulars: ATCC 10231, 48 h. It is filed as cell-based, Candida albicans. In outline:
as §1

The subject of series [3] is proteases secreted by C. albicans ATCC 10231. The experiment in a line: in vitro. Particulars: C. albicans ATCC 10231 culture supernatant, pH 8. In outline:
(§2)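 Cell-free culture supernatants (overnight, 37°C; MH broth for bacteria, 2% tryptone/2% dextrose for yeast) were centrifuged, adjusted to pH 8.0 and 0.22 μm filtered. Peptides at 0.5 mg/mL were incubated in supernatant 24 h at 37°C; remaining intact peptide measured by RP-HPLC, with peptide-free supernatant as negative control.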

For series [4], the system named is proteases secreted by S. aureus ATCC 25923. The experiment in a line: in vitro. To be noted: S. aureus ATCC 25923 culture supernatant, pH 8. An outline of the steps:
as §2

The test system of the next series is human erythrocytes. The experiment in a line: Hemolytic activity assay. To be noted: human RBC in PB, 37°C, 1 h, OD420, total lysis control 0.1% SDS, three technical replicates. Type of series: cell-based. In outline:
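Washed RBCs from a healthy volunteer were incubated with peptides at 32–128 μM for 1 h at 37°C in PB. Hemoglobin release into the supernatant was read as OD420 against total lysis with 0.1% SDS, in three technical replicates.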

In a further series the test system is RAW 264.7 cells. The experiment in a line: Cell viability assay (MTT). Type of series: cell-based, mouse. Particulars: 1–128 μM peptide in DMEM with 4% FBS, 42 h, 595 nm, triplicate. An outline of the steps: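 RAW 264.7 cells (1 × 10^4/well, DMEM + 10% FBS) grown overnight to 80% confluency, then exposed to peptides at 1–128 μM in DMEM with 4% FBS for 42 h at 37 °C. MTT read at 595 nm; viability relative to medium-only controls, triplicate, IC50 as 50% loss of viability.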

For series [5], the system named is proteases secreted by A. baumannii ATCC 19606. The experiment in a line: in vitro. To be noted: A. baumannii ATCC 19606 culture supernatant, pH 8. An outline of the steps:
as §2

The test system of another series is human plasma proteases. The experiment in a line: in vitro.
Series [6] has as its system proteases secreted by P. aeruginosa ATCC 27853. Nature of the series: in vitro. Particulars: P. aeruginosa ATCC 27853 culture supernatant, pH 8. An outline of the steps:
as §2

≈ marks a conversion by molar mass, not a printed value. Marks after values point to notes of the source that are not given here. Where a SMILES comes first, the peptide text is derived from it. [ ]: non-standard residue; d: D form. hArg = N=C(N)NCCCC[C@H](N)C(=O)O; 2Thi = N[C@@H](Cc1cccs1)C(=O)O; Dab = NCC[C@H](N)C(=O)O; Dap = NC[C@H](N)C(=O)O

Description for human plasma proteases: The peptides were mixed with plasma from healthy volunteers to a final concentration of 0.1 mg/mL and incubated at 37°C. Aliquots (20 or 40 μL) were removed after 0, 2, 4, 6, 8, 12, 24, and 36 h, mixed with 0.05% TFA to a final concentration of 0.01 mg/mL, and incubated on ice for 10 min. After centrifugation (12,000 × g, 5 min), the supernatant was stored at −20°C. The samples were analyzed as described in section “Hydrophobicity” and quantified as described in section “Stability Toward Tryptic Degradation.” All stability tests were performed at least in triplicate. The identities of the metabolites after 12 h of degradation by plasma proteases were determined by LC-MS on a Waters Acquity UPLC-QDa system.

Broadly, the fraction remaining is what is left of the initial amount, in per cent. The low end stands for a greater loss, the high end for greater stability. Usually IC50 stands for the midpoint of a concentration-inhibition curve. High values mean weaker potency, low ones greater potency. On to `CC(C)C[C@H](NC(=O)[C@H](Cc1ccc(O)cc1)NC(=O)[C@H](CCN)NC(=O)[C@H](CC(C)C)NC(=O)[C@H](CC(C)C)NC(=O)[C@H](CCN)NC(=O)[C@H](CN)NC(=O)[C@H](Cc1cccs1)NC(=O)[C@H](CC(C)C)NC(=O)[C@H](CCCNC(=N)N)NC(=O)[C@@H](N)CCN)C(=O)N[C@@H](CCCCNC(=N)N)C(=O)N[C@@H](CCN)C(=O)N[C@@H](Cc1ccccc1)C(N)=O` [UP15] (H-[Dab]RL[2Thi][Dap][Dab]LL[Dab]YL[hArg][Dab]F-NH2), for which the MIC against E. coli ATCC 25922 is 2 µg/mL (≈ 1.15 µM); against P. aeruginosa ATCC 27853, 1 µg/mL (≈ 0.573 µM); in [1], 4 µg/mL (≈ 2.29 µM); in the series on A. baumannii ATCC 19606, 2 µg/mL (≈ 1.15 µM); in series [2], 2 µg/mL (≈ 1.15 µM); in the series on S. aureus ATCC 25923, 1 µg/mL (≈ 0.573 µM). In the series with C. albicans ATCC 10231, this molecule gave an MIC of 4 µg/mL (≈ 2.29 µM). The fraction remaining at 24 h, 0.5 mg/mL stood at 21.1 ± 5.28% in [3] (Candida albicans) and 54.6 ± 4.19% in series [4] (Staphylococcus aureus). Also, the “Hemolysis rate (%)” value in the series on human erythrocytes (64 μM) was 54.16 ± 2.02 %; in the series on human erythrocytes (128 μM), 97.86 ± 3.07 %. Besides, inhibition in the series on RAW 264.7 cells was half-maximal at 28.7 ± 3.52 µM (IC50).

For the molecule `CC(C)C[C@H](NC(=O)[C@H](Cc1ccc(O)cc1)NC(=O)[C@H](CCCCN)NC(=O)[C@H](CC(C)C)NC(=O)[C@H](CC(C)C)NC(=O)[C@@H](CCCCN)NC(=O)[C@@H](CCCCN)NC(=O)[C@H](Cc1ccccc1)NC(=O)[C@H](CC(C)C)NC(=O)[C@@H](CCCNC(=N)N)NC(=O)[C@H](N)CCCCN)C(=O)N[C@@H](CCCNC(=N)N)C(=O)N[C@H](CCCCN)C(=O)N[C@@H](Cc1ccccc1)C(N)=O` [DP05] (H-[dK][dR]LF[dK][dK]LLKYLR[dK]F-NH2), the MIC in the series on E. coli ATCC 25922 turned out to be 2 µg/mL (≈ 1.06 µM); in the series on P. aeruginosa ATCC 27853, 1 µg/mL (≈ 0.532 µM); in series [1], 8 µg/mL (≈ 4.25 µM); against A. baumannii ATCC 19606 it was 1 µg/mL (≈ 0.532 µM); in series [2], 2 µg/mL (≈ 1.06 µM); against S. aureus ATCC 25923 it was 1 µg/mL (≈ 0.532 µM). In the series on C. albicans ATCC 10231, this molecule had an MIC of 2 µg/mL (≈ 1.06 µM). For the same molecule, the fraction remaining at 24 h, 0.5 mg/mL worked out at 31.7 ± 9% in series [5] (Acinetobacter baumannii) and 66.7 ± 5.9% in series [4] (Staphylococcus aureus). The entries for the “Hemolysis rate (%)” value with human erythrocytes (64 μM) and in the series on human erythrocytes (128 μM) were 30.09 ± 1.56% and 45.07 ± 2.93%, respectively. Further, in the series with RAW 264.7 cells, the IC50 stood at 32.7 ± 3.44 µM. Further, the metabolised at 2 h, 0.1 mg/mL in the series with human plasma proteases is over 40%. In addition, the metabolised at 4 h, 0.1 mg/mL in the series with human plasma proteases was over 50%.

For the molecule `CC(C)C[C@H](NC(=O)[C@H](Cc1ccc(O)cc1)NC(=O)[C@H](CCN)NC(=O)[C@H](CC(C)C)NC(=O)[C@H](CC(C)C)NC(=O)[C@H](CCN)NC(=O)[C@H](CCN)NC(=O)[C@H](Cc1ccccc1)NC(=O)[C@H](CC(C)C)NC(=O)[C@H](CCCCNC(=N)N)NC(=O)[C@@H](N)CCN)C(=O)N[C@@H](CCCNC(=N)N)C(=O)N[C@@H](CCN)C(=O)N[C@@H](Cc1ccccc1)C(N)=O` [UP12] (H-[Dab][hArg]LF[Dab][Dab]LL[Dab]YLR[Dab]F-NH2), the MIC came to 2 µg/mL (≈ 1.14 µM) against E. coli ATCC 25922; 2 µg/mL (≈ 1.14 µM) in the series with P. aeruginosa ATCC 27853; 4 µg/mL (≈ 2.28 µM) in [1]; 2 µg/mL (≈ 1.14 µM) in the series on A. baumannii ATCC 19606; 4 µg/mL (≈ 2.28 µM) in series [2]; 1 µg/mL (≈ 0.57 µM) in the series on S. aureus ATCC 25923. Besides, the MIC with C. albicans ATCC 10231 stood at 4 µg/mL (≈ 2.28 µM). Moreover, the amount remaining at 24 h, 0.5 mg/mL in series [3] amounted to 37.7 ± 5.24%; in series [6] it was 20.6 ± 4.3%; in [4] it was 69.5 ± 5.97%. Besides, the “Hemolysis rate (%)” value is given as 45.13 ± 1.95 % in the series with human erythrocytes (64 μM) and “∼100.00* %” in the series on human erythrocytes (128 μM). The IC50 with RAW 264.7 cells stood at 21.2 ± 2.42 µM.

With `CC(C)C[C@H](NC(=O)[C@H](Cc1ccc(O)cc1)NC(=O)[C@H](CCN)NC(=O)[C@H](CC(C)C)NC(=O)[C@H](CC(C)C)NC(=O)[C@H](CN)NC(=O)[C@H](CN)NC(=O)[C@H](Cc1ccccc1)NC(=O)[C@H](CC(C)C)NC(=O)[C@H](CCCCNC(=N)N)NC(=O)[C@@H](N)CN)C(=O)N[C@@H](CCCCNC(=N)N)C(=O)N[C@@H](CCN)C(=O)N[C@@H](Cc1ccccc1)C(N)=O` [UP14] (H-[Dap][hArg]LF[Dap][Dap]LL[Dab]YL[hArg][Dab]F-NH2), the MIC against E. coli ATCC 25922 was determined as 2 µg/mL (≈ 1.16 µM); against P. aeruginosa ATCC 27853, 2 µg/mL (≈ 1.16 µM); in [1] it was 8 µg/mL (≈ 4.63 µM); with A. baumannii ATCC 19606, 4 µg/mL (≈ 2.32 µM); in series [2] it was 4 µg/mL (≈ 2.32 µM); with S. aureus ATCC 25923 it was 0.5 µg/mL (≈ 0.29 µM). Moreover, the MIC against C. albicans ATCC 10231 was found to be 4 µg/mL (≈ 2.32 µM). The share remaining at 24 h, 0.5 mg/mL came to 12.9 ± 1.48% in series [5], 27.6 ± 6.76% in series [6] and 57.3 ± 6.54% in [4]. In addition, the “Hemolysis rate (%)” value with human erythrocytes (64 μM) amounted to 66.51 ± 3.14 %; in the series with human erythrocytes (128 μM), 74.68 ± 1.34 %. The molecule also had an IC50 with RAW 264.7 cells of 14 ± 2.67 µM.
